Earlier results in patent US8911781B2, “Process of manufacture of novel drug delivery system: multilayer tablet composition of thiazolidinedione and biguanides” (Inventia Healthcare Private Limited, priority 2002, dated 2014).
Counter-ions that a name gives are not always drawn.

Legend:
[1] = after ingestion
[2] = at steady state concentrations; parent drug

Structure (SMILES) | time to complete gastro-intestinal absorption [1] [h] | plasma elimination half-life (t½) [2] [h]
CN(C)C(=N)N=C(N)N [Metformin HCl] | ≤ 6 | –
CCc1ccc(CCOc2ccc(CC3SC(=O)NC3=O)cc2)nc1 (centres unmarked) [Pioglitazone HCl] | – | 3.3 to 4.9
